Values after ≈ are worked out from the molar mass of the structure shown. Marks after values point to notes of the source that are not given here.
Tests used:
[1] = pH 7.4
Method: (§1) Phosphate buffered saline (PBS) pH 7.4 was prepared using PBS tablets as per the manufacturer's instructions. Compounds and marker stocks are prepared at 10 mM in DMSO.
(§2) Compounds were incubated at 200 μM (2% DMSO) in Millipore—MSS LB PC 10 or Porvair—ref: 36004 plates in the presence of the prepared PBS pH 7.4 solution for 1.5 h, at RT, with gentle shaking. […] The samples were then analysed in a 96 well UV Star analysis plate on a plate reader from 220 nm to 500 nm at 10 nm increments.
(§3) The concentration of the samples was calculated against the standard curves.

[2] = biological target: recombinant human PKM2 (Homo sapiens (Human), UniProt P14618); assay: Human PKM2 activation assay (Kinase-Glo Plus luminescence); format: biochemical; details: for EC50: activation of recombinant human PKM2, 4-parameter logistic fit, read-out: hPKM2 EC50
Method: Compound activation of recombinant human PKM2 pyruvate kinase activity was determined by biochemical assay. N-terminal His-tagged hPKM2 was sourced from R&D Systems and its substrates phosphoenolpyruvate (PEP) and ADP from Sigma-Aldrich and 2BScientific Ltd, respectively. The Kinase-Glo® Plus luminescence assay was from Promega. All other reagents were from Sigma-Aldrich. Test Compounds were prepared as 10 mM DMSO stocks and dilution series prepared in DMSO for direct dilution into Assay Buffer comprising 50 mM imidazole, 50 mM KCl, 7 mM MgCl2, 0.01% Tween20, 0.05% BSA (pH 7.2).
Human PKM2 was diluted into Assay Buffer comprising 50 mM imidazole, 50 mM KCl, 7 mM MgCl2, 0.01% Tween20, 0.05% BSA (pH 7.2) to a final concentration of 5 pM. Enzyme-Assay Buffer mix was dispensed into a 384-well shallow-well white-walled plate (PerkinElmer) and Test Compounds added by acoustic dispense (Echo®, Labcyte Inc.).
After 60 minutes' incubation on an orbital shaker (300 rpm, 26° C.), enzyme activity was quantified by the luminescent detection of generated ATP. Kinase-Glo® Plus reagent was added to each well and the plates incubated for a further 15 minutes on an orbital shaker in the dark (300 rpm, 26° C.) before luminescence measurement on a plate reader (PHERAstar® FSX, BMG Labtech).
EC50 and Emax values were determined from 4-parameter logistic fits of compound concentration-response curves.

[3] = Kinetic aqueous solubility; details: PBS pH 7.4, 200 μM (2% DMSO), RT
Method: as §1, §2, §3

[4] = biological target: recombinant human PKLR (Homo sapiens (Human), UniProt P30613); assay: Human PKLR activation assay (Kinase-Glo Plus luminescence)
Method: Compound activation of recombinant human PKLR pyruvate kinase activity was determined by biochemical assay. N-terminal His-tagged enzyme was sourced from R&D Systems and its substrates phosphoenolpyruvate (PEP) and ADP from Sigma-Aldrich and 2BScientific Ltd, respectively. The Kinase-Glo® Plus luminescence assay was from Promega. All other reagents were from Sigma-Aldrich. Test Compounds were prepared as 10 mM DMSO stocks and dilution series prepared in DMSO for direct dilution into Assay Buffer comprising 50 mM imidazole, 50 mM KCl, 7 mM MgCl2, 0.01% Tween20, 0.05% BSA (pH 7.2).
Human PKLR was diluted into Assay Buffer to a final concentration of 5 pM. Enzyme-Assay Buffer mix was dispensed into 384-well shallow-well white-walled plates and Test Compounds added by acoustic dispense (Echo®, Labcyte Inc).

[5] = test system: A549 cells; assay: A549 proliferation assay in low-serine medium (CellTiter-Glo); format: cell-based; details: Homo sapiens, 72 h, 3 days, low-serine medium (20 μM L-serine)
Method: The effect of compounds of Formula (I) on A549 cell proliferation in low-serine medium was assessed using a luminescence assay of viable cell number (CellTiter-Glo® 2.0, Promega) duplexed with a fluorescent cytotoxicity assessment (CellTox™ Green, Promega). Cell culture reagents were from ThermoFisher unless specified otherwise. Assay reagents were from Sigma-Aldrich unless specified otherwise. Test Compounds were prepared as 10 mM DMSO stocks and dilution series prepared in DMSO for direct dilution into culture medium.
Cells were passaged every 3-4 days at 80-90% confluence. The cell monolayer was washed twice with room-temperature Ca^2+/Mg-free PBS and 4 ml room-temperature trypsin-EDTA added to the flask. After 5 minutes' incubation (37° C., 5% CO2) to detach cells, trypsin was quenched with 13 ml warmed complete growth medium and the cells harvested and diluted to 2.4×10^4 cells/ml for dispensing into 384-well clear-bottom black-walled plates (600 cells/well).
Following overnight incubation, growth medium was aspirated from each well and the cells washed twice with Assay Medium comprising Basal Medium Eagle supplemented with 3% heat-inactivated dialysed FBS plus 2 mM L-glutamine plus 20 μM L-serine (Sigma-Aldrich). After aspiration of the final wash medium, Assay Medium containing Test Compound was added to each well. DMSO vehicle controls were included on each plate.
Cells were incubated for 3 days in a humidified incubator (37° C., 5% CO2) at which point CellTox™ Green and CellTiter-Glo® reagents were prepared according to the manufacturer's instructions. Triton-X was added to HIGH wells for cytotoxicity determination and the plate incubated for 30 minutes (20° C., ambient humidity and pCO2). CellTox™ Green reagent was added to each well and the plate covered, placed on an orbital shaker @450 rpm for 2 minutes, and incubated in the dark for 15 minutes (20° C., ambient humidity and pCO2). Endpoint fluorescence was measured using a plate reader (PHERAstar® FSX, BMG Labtech).
Following cytotoxicity determination, CellTiter-Glo® reagent was added to each well and the plate placed on an orbital shaker @450 rpm for 2 minutes to lyse cells. Plates were incubated in the dark for 15-30 minutes (20° C., ambient humidity and pCO2) prior to endpoint luminescence measurement (PHERAstar® FSX, BMG Labtech).
Proliferation was calculated by normalizing luminescence signals to LOW controls obtained from a parallel plate processed at the time of Test Compound challenge and HIGH (DMSO vehicle) wells from the compound plate. IC50 values were determined from a 4-parameter logistic fit of compound concentration-response curves.

Sequence of recombinant human PKM2 (P14618 whole entry): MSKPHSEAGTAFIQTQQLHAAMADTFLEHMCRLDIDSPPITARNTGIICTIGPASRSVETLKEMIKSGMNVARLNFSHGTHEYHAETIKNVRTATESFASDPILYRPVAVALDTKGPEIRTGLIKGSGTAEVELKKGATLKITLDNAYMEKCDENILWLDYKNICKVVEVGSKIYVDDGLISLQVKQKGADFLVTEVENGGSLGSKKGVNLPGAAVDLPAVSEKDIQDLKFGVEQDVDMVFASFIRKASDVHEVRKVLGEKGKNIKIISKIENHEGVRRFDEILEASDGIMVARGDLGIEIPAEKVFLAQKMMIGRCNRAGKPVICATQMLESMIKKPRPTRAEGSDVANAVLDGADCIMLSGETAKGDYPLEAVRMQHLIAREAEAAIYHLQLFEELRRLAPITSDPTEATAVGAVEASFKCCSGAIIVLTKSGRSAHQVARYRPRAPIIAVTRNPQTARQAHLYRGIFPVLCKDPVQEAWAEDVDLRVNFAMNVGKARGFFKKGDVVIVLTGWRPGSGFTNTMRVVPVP
Sequence of recombinant human PKLR (P30613 whole entry): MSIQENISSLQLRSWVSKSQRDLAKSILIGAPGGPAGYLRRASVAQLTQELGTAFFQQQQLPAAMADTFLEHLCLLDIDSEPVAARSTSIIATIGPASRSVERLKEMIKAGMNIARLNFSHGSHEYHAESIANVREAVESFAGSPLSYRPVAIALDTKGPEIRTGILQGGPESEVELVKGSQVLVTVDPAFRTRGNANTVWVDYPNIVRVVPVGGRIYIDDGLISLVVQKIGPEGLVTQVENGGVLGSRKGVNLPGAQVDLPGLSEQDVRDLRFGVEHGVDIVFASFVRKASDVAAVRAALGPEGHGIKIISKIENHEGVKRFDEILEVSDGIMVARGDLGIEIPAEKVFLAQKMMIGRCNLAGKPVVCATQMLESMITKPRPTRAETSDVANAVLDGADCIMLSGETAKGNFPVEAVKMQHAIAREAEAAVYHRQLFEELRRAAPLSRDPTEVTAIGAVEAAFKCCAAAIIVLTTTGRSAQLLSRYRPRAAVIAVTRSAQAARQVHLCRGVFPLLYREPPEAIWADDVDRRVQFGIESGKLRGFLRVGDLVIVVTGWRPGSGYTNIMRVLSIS

**Q.** Which “Kinetic solubility (Ksol);” value [1] does the source give for “(3-((1H-pyrrolo[2,3-c]pyridin-3-yl)methyl)-N-ethyl-5-methyl-4-oxo-5,6,8,9-tetrahydro-3H-pyrido[4′,3′:4,5]pyrrolo[2,3-d]pyridazine-7(4H)-sulfonamide [Example 30]” here?
**A.** 30.29 µg/mL

**Q.** What about the EC50 [2] of the same compound?
**A.** 83 nM

**Q.** And the “hPKM2 Emax (%)” value ([2]; percentage activation normalised to DMSO vehicle (LOW) and 5 μM TEPP-46 (HIGH))?
**A.** 62.2%

**Q.** Which “Kinetic solubility (Ksol); (μg/ml)” value ([3]; 1.5 h) does the source give for `CC(O)c1cccc(Cn2ncc3c4c(n(C)c3c2=O)CN(S(C)(=O)=O)CC4)c1` (stereo not shown) [Example 3, 3-(3-(1-hydroxyethyl)benzyl)-5-methyl-7-(methylsulfonyl)-3,5,6,7,8,9-hexahydro-4H-pyrido[4′,3′:4,5]pyrrolo[2,3-d]pyridazin-4-one] here?
**A.** 17.91* μg/ml

**Q.** And the solubility kinetic at 1.5 h ([3]; phosphate buffered saline (PBS) pH 7.4, pH 7.4, aqueous buffer, kinetic from dmso stock, Kinetic solubility (Ksol), (μg/ml))?
**A.** 19 µg/mL (≈ 45.6 µM)

**Q.** And the EC50 [4]?
**A.** 60 to 320 nM

**Q.** What about the Emax ([4]; read-out: hPKLR Emax (%)) of the same compound?
**A.** 100 to 117%

**Q.** And the EC50 [2]?
**A.** 303 nM

**Q.** And the Emax ([2]; read-out: hPKM2 Emax (%))?
**A.** 81.4%

**Q.** And the IC50 [5]?
**A.** 10.5 nM

— patent US20240409542A1, “NOVEL COMPOUNDS” (Sitryx Therapeutics Limited, priority 2021, published 2024)
